Results on six compounds are retold here after ChEMBL document CHEMBL1148103, “Antifungal steroidal glycosides from the patagonian starfish anasteriasminuta: structure-activity correlations” (2002).

Activity calls are given as the source filed them. The calls are words filed in the database; no cut-off is given here.

The first test concerns Cladosporium cucumerinum. Description: Antifungal activity against Cladosporium cucumerinum at 10 ug/spot after 2 to 3 days by bioautographic assay. Type of test: functional.
Take `CCCCNC(=O)n1c(NC(=O)OC)nc2ccccc21` [BENOMYL]: the “inhibition zone (IZ)” value is given as 20 mm.

The test system of another test is Cladosporium cucumerinum. Description: Antifungal activity against Cladosporium cucumerinum after 2 to 3 days by bioautographic assay. Type of test: functional, organism-based.
For the compound `CC(C)CC(=O)C[C@@H](C)[C@H]1CC[C@H]2[C@@H]3C[C@H](O[C@@H]4O[C@H](C)[C@@H](O)[C@H](O[C@@H]5OC[C@@H](O[C@@H]6O[C@H](CO)[C@H](O)[C@H](O)[C@H]6O[C@@H]6O[C@H](C)[C@H](O[C@@H]7O[C@H](CO)[C@H](O)[C@H](O)[C@H]7O)[C@H](O)[C@H]6O)[C@H](O)[C@H]5O[C@@H]5O[C@H](C)[C@@H](O)[C@H](O)[C@H]5O)[C@H]4O)[C@H]4C[C@@H](OS(=O)(=O)O)CC[C@]4(C)C3=CC[C@]12C`, the Activity result is “Dose-dependent effect”.
Same read-out and setting: as for `CC(C)CC(=O)C[C@@](C)(O)[C@H]1CC[C@H]2[C@@H]3C[C@H](O[C@@H]4O[C@H](C)[C@@H](O)[C@H](O[C@@H]5OC[C@@H](O[C@@H]6O[C@H](CO)[C@H](O)[C@H](O)[C@H]6O[C@@H]6O[C@H](C)[C@H](O)[C@H](O)[C@H]6O)[C@H](O)[C@H]5O[C@@H]5O[C@H](C)[C@@H](O)[C@H](O)[C@H]5O)[C@H]4O)[C@H]4C[C@@H](OS(=O)(=O)O)CC[C@]4(C)C3=CC[C@@]21C`, the entry is “Dose-dependent effect”.
The same measure, in the same setting: the entry for `CC(C)CC(=O)C[C@@](C)(O)[C@H]1CC[C@H]2[C@@H]3C[C@H](O[C@@H]4O[C@H](C)[C@@H](O)[C@H](O[C@@H]5OC[C@@H](O[C@@H]6O[C@H](CO)[C@H](O)[C@H](O)[C@H]6O[C@@H]6O[C@H](C)[C@H](O[C@@H]7O[C@H](CO)[C@H](O)[C@H](O)[C@H]7O)[C@H](O)[C@H]6O)[C@H](O)[C@H]5O[C@@H]5O[C@H](C)[C@@H](O)[C@H](O)[C@H]5O)[C@H]4O)[C@H]4C[C@@H](OS(=O)(=O)O)CC[C@]4(C)C3=CC[C@@]21C` is “Dose-dependent effect”.
Same read-out and setting: as for `CC(=O)[C@H]1CC[C@H]2[C@@H]3C[C@H](O[C@@H]4O[C@H](C)[C@@H](O)[C@H](O[C@@H]5OC[C@@H](O[C@@H]6O[C@H](CO)[C@H](O)[C@H](O)[C@H]6O[C@@H]6O[C@H](C)[C@H](O[C@@H]7O[C@H](CO)[C@H](O)[C@H](O)[C@H]7O)[C@H](O)[C@H]6O)[C@H](O)[C@H]5O[C@@H]5O[C@H](C)[C@@H](O)[C@H](O)[C@H]5O)[C@H]4O)[C@H]4C[C@@H](OS(=O)(=O)O)CC[C@]4(C)C3=CC[C@]12C`, the entry is “inactive”.
On to `CC(C)CC(=O)C[C@@](C)(O)[C@H]1CC[C@H]2[C@@H]3C[C@H](O[C@@H]4O[C@H](C)[C@@H](O)[C@H](O[C@@H]5OC[C@@H](O)[C@H](O)[C@H]5O[C@@H]5O[C@H](C)[C@@H](O)[C@H](O)[C@H]5O)[C@H]4O)[C@H]4C[C@@H](OS(=O)(=O)O)CC[C@]4(C)C3=CC[C@@]21C`, for which the result was inactive.
